Data taken from ChEMBL document CHEMBL1148158, “Antineoplastic Agents. 510. Isolation and structure of dolastatin 19 from the Gulf of California sea hare Dolabella auricularia” (2004).
Values after ≈ are worked out from the molar mass of the structure shown.

Key:
MCF7 = test: Growth inhibition of human MCF7 cells; type: functional
KM-20L2 = test: Growth inhibition of human KM20L2 cells; type: functional

## CO[C@@H]1[C@@H](O)[C@@H](OC)[C@H](O[C@@H]2C[C@]3(O)O[C@H](C[C@H](OC)/C=C(\C)C[C@@H](/C=C/C=C/Br)OC(=O)[C@H]3C)[C@H]2C)O[C@H]1C [DOLASTATIN 19]
MCF7
  GI50: 0.72 µg/mL (≈ 1.14 µM)
KM-20L2
  GI50: 0.76 µg/mL (≈ 1.2 µM)
